What was measured:
[1] = test system: primary hypothalamic neurons; experiment: Feeding neuropeptide expression in primary hypothalamic culture (qRT-PCR); type: cell-based, CD-1 mice; conditions: 100 μM BAP, 16 hr, male- and female-derived cultures (both sexes)
Experimental: (§1) For cell culture experiments, total RNA was isolated using PureLink RNA isolation kit (Thermofisher Scientific, Burlington, ON, Canada) according to the manufacturer's instruction with on column DNase step (PureLink DNAse kit) or DNase I treatment to remove genomic DNA. For mouse experiments, total RNA was isolated using mirVana PARIS RNA and native protein isolation kit (Thermofisher Scientific). RNA quality and quantity were measured using Nanodrop 2000 and 500-1000 ng of complimentary DNA (cDNA) was synthesized with High Capacity cDNA Reverse Transcription kit (Applied biosystems, Thermofisher Scientific). Quantitative reverse transcription polymerase chain reaction (RT-qPCR) was performed with 12.5 ng of cDNA amplified with Platinum SYBR green qPCR SuperMix-UDG with ROX on an Applied Biosystems Prism 7900HT or PowerTrack Green Master Mix on an Applied Biosystems QuantStudio 5 and gene specific primers as per manufacturer's instructions (Table 1). Data was analyzed using […] and normalized to reference gene, either 60S ribosomal protein L7 (Rpl7) or Histone 3a (His).
Because the BAP was being fed to the mice, it is also important to determine what are the direct effects of BAP on native hypothalamic neurons, since the results may be due to an indirect effect from the periphery. Hypothalamus were extracted from male and female CD-1 mice fed a normal chow diet, and primary hypothalamic neurons were cultured from individual mice. The neurons were treated with 100 µM of BAP for 16 hr to assess the effect of BAP on feeding-related neuropeptide expression.

mHypoE-44 cell line = experiment: Gene expression by qRT-PCR in mHypoE-44 hypothalamic cell line; type: cell-based, mouse; conditions: for effect of PKA inhibition on BAP effect on Npy expression: n=2
Experimental: Hypothalamic neurons from embryonic and adult mice were previously immortalized to generate the clonal cell lines mHypoE-46, mHypoE-44, mHypoE-41, mHypoE-38, mHypoA-59, a FAC-sorted POMC/GFP mouse-derived cell line, mHypoA-POMC/GFP-2, and a mixed culture mHypoA-Bmal1-WT/F cell line (6, 13, 14). The mHypoE-46, mHypoE-44, and mHypoA-Bmal1-WT/F lines were cultured in DMEM containing 1000 mg/L glucose supplemented with 5% FBS and 1% pen/strep. The mHypoE-41, mHypoE-38, and mHypoA-59 cell lines were cultured in DMEM containing 4500 mg/L glucose supplemented with 2% FBS and 1% pen/strep. The mHypoA-POMC/GFP-2 line was cultured in DMEM containing 1000 mg/L glucose supplemented with 2% FBS and 1% pen/strep. All cells were maintained in 5% CO2 at 37° C. BAP was initially dissolved in DMSO solvent (vehicle control) to achieve 1000x the intended dose. The BAP solution was then diluted 1:1000 with the growth media used for the cell line. For co-treatment experiments, the vehicle control for ATP, UDP, and PKI was water, and for the H89 PKA inhibitor was DMSO. Neuropeptide gene expression levels were determined by qRT-PCR.
as §1

Akt (PKB) = experiment: Akt (Ser473) phosphorylation by Western blot in mHypoE-46 after insulin re-exposure; type: cell-based, mouse
Experimental: mHypoE-46 cells were serum starved in 5.5 mM glucose (LG) DMEM for 1 hour prior to treatment with vehicle (0.1% DMSO), 100 µM BAP or H20, […] 5-Aminoimidazole-4-carboxamide ribonucleotide (AICAR) or 0 mM glucose DMEM. Protein was harvested using 1× cell lysis buffer (Cell Signaling Technologies, Inc, CST) containing protease and phosphatase inhibitors. A total of 30 μg protein was separated on a 12% SDS-polyacrylamide gels and transferred onto PVDF membranes. […] Protein density was quantified using ImageJ or the iBright Imaging System.
In order to determine if insulin signaling and sensitivity may be affected by BAP, we assessed the activity and expression of the key signal transduction cascade activated by insulin, the PI3K/Akt pathway. mHypoE-46 neurons were co-treated with 100 μM insulin or vehicle control and 100 μM BAP and vehicle control for 24 hours. […] The phosphorylation level of Akt (PKB), the downstream kinase in the PI3K/Akt signal transduction pathway was assessed. […]

[2] = test system: insulin receptor subunit beta (InsRb); experiment: Insulin receptor subunit beta protein level by Western blot in mHypoE-46; type: cell-based, mouse
Experimental: mHypoE-46 cells were serum starved in 5.5 mM glucose (LG) DMEM for 1 hour prior to treatment with vehicle (0.1% DMSO), 100 µM BAP or H20, […] 5-Aminoimidazole-4-carboxamide ribonucleotide (AICAR) or 0 mM glucose DMEM. Protein was harvested using 1× cell lysis buffer (Cell Signaling Technologies, Inc, CST) containing protease and phosphatase inhibitors. A total of 30 μg protein was separated on a 12% SDS-polyacrylamide gels and transferred onto PVDF membranes. Membranes were blocked in 5% milk dissolved in Tris-buffered saline with Tween 20 (TBS-T) for 1 h and incubated with primary antibody overnight at 4° C. phospho-AMPKα (Thr172; cat. 2532S, CST), and total AMPKα (cat. 2535S, CST); phospho-p70-S6K (Thr389; cat. 9205S, CST) and total p70-S6K (cat. 9202S, CST); insulin receptor ß (cat. 3025S, CST); phospho-AKT (Ser473; cat. 9271S, CST) and total AKT (cat. 9272S, CST); phospho-ERK1/2 (Thr202/Tyr204; cat. 9101, CST) and total ERK (cat. 4695, CST) were diluted 1:1000 in 5% milk in TBS-T. Membranes were washed and incubated with secondary HRP-linked antirabbit antibody (1:7500 in 5% milk in TBS-T, CST) for 1 h, washed, and imaged using the Signal Fire ECL Reagent (CST) on the iBright 1500 Imaging System (Thermofisher). Protein density was quantified using ImageJ or the iBright Imaging System.
The mHypoE-46 neurons were exposed to […] BAP for 16 h followed by RNA isolation. […]

c1ccc(CNc2ncnc3nc[nH]c23)cc1 [BAP, N6-benzylaminopurine]
Agrp expression [1]: no effects
Npy expression [1]: no effects
Pomc expression [1]: significantly increase
effect of PKA inhibition on BAP effect on Npy expression (mHypoE-44 cell line; 100 μM BAP + 1 μM H89, 16 hr): unable to block the effects of BAP on Npy expression
effect of PKA inhibition on BAP effect on Npy expression (mHypoE-44 cell line; 100 μM BAP + 10 μM PKI, 16 hr): unable to block the effects of BAP on Npy expression
Npy mRNA under co-treatment with ATP (mHypoE-44 cell line; 100 μM BAP + 100 μM ATP, 16 hr): still able to overcome this induction
Npy mRNA under co-treatment with UDP (effect of UDP on BAP repression) (mHypoE-44 cell line; 100 μM BAP + 100 μM UDP, 16 hr): block the repression of Npy levels by BAP
Npy mRNA under co-treatment with UTP (effect of UTP on BAP repression) (mHypoE-44 cell line; 100 μM BAP + 100 μM UTP, 16 hr, n=2 preliminary): appears to be able to block the repression of Npy levels by BAP
Agrp mRNA expression (mHypoE-44 cell line; 100 μM BAP, 16 hr): increased
Npy mRNA expression (mHypoE-44 cell line; 100 μM BAP, 16 hr): supressed
Npy mRNA expression, time course (mHypoE-44 cell line; 100 μM BAP, at 8 and 16 hr (tested 2, 4, 8, 16, 24 hr)): significantly downregulate
BAP dose with strongest Npy decrease (mHypoE-44 cell line; dose curve, 16 hr): 500 µM
Npy expression, dose curve (mHypoE-44 cell line; increasing concentrations of BAP, 16 hr): decreases Npy in a dose dependent manner
Akt phosphorylation at Ser473 upon 15 minutes of insulin exposure (Akt (PKB); 100 μM BAP 24 hours, neurons pre-treated with vehicle alone, re-exposed to 100 nM insulin): significantly increased
induction of Akt phosphorylation by BAP under insulin-induced cellular insulin resistance (Akt (PKB); 100 μM BAP, neurons pre-treated with 100 μM insulin for 24 hours): not observed
InsR protein level in response to cellular insulin resistance, BAP relative to vehicle control ([2]; 100 μM BAP 24 h, insulin pre-treatment (100 μM, 24 h)): no change
basal levels of InsRb protein ([2]; 100 μM BAP, 24 hours): significantly increased

Reference: US20260034135A1, “USE OF N6-BENZYLAMINOPURINE AS AN APPETITE SUPPRESSANT” (THE GOVERNING COUNCIL OF THE UNIVERSITY OF TORONTO, priority 2022, published 2026)
